{"source": "paper PMC9943626", "about": "“CS27109, A Selective Thyroid Hormone Receptor-β Agonist Alleviates Metabolic-Associated Fatty Liver Disease in Murine Models” (International Journal of Endocrinology, 2023)", "key": {"[1]": {"assay": "Tissue distribution in SD rat", "format": "in vivo", "details": "for concentration at 2 h / concentration at 8 h: male, 10 mg/kg oral gavage once", "description": "[Worded in the source for another organism; this organism is reported under the same test.] Half of mice for each group (n = 3) were sacrificed 2H and 8H after drug administration, respectively. Blood, heart, and liver were collected at each time point. Blood was processed and detected as mentioned previously. The heart and liver were homogenized and added extractant. The protein of tissue samples was precipitated by vortex oscillation, and the supernatant was collected and determined by LC-MS/MS procedures."}, "HFD-CHOL hamster model": {"tested_on": "HFD-CHOL hamster model", "assay": "HFD-CHOL hamster model, serum biochemical test", "format": "in vivo, golden hamster", "details": "mean ± SD; for HDL-c: model 3.6 ± 1.1, normal 1.6 ± 0.45; for LDL-c: model 17 ± 6.1, normal 1.3 ± 0.54; for TG: model 26 ± 24, normal 2.1 ± 1.1; for TC: model 37 ± 13, normal 3.1 ± 0.72; for ALT: model 278 ± 174, normal 94 ± 58; for AST: model 638 ± 323, normal 98 ± 45", "description": "Hamster study: 58 golden hamsters ♂ aged 6–8 weeks were purchased from Beijing Vital River Laboratory Animal Technology Co., Ltd. 10 animals were kept with a diet of food control as normal control, and the other 48 animals were fed 40% fat and 1.25% cholesterol (HFD-CHOL, D12108C, Research diet) as a model group. […] Animals in the normal and model group were given solvent by oral gavage. All drugs, including solvent, were administered consecutively for 4 weeks and once a day. After sacrifice, blood was collected and serum was isolated for the AST, ALT, TG, TC, LDL-c, and HDL-c test."}, "HFD SD rat model": {"tested_on": "HFD SD rat model", "assay": "HFD SD rat model, biochemical, organ weight ratio, liver lipid and liver pathology", "format": "in vivo", "details": "mean ± SD; for Liver TC / Liver TG: HFD SD rat liver; for Liver TC: model 13 ± 2.2, normal 6.0 ± 0.76; for Liver TG: model 102 ± 36, normal 0.75 ± 12; for TG / HDL-c / LDL-c / TC / ALT / AST: HFD SD rat serum; for TG: model 0.82 ± 0.73, normal 0.53 ± 0.34; for HDL-c: model 1.2 ± 0.44, normal 1.1 ± 0.13; for LDL-c: model 9.7 ± 6.1, normal 0.28 ± 0.06; for TC: model 20 ± 13, normal 1.5 ± 0.20; for ALT: model 166 ± 95, normal 32 ± 6.8; for AST: model 365 ± 212, normal 103 ± 21", "description": "SD rat study: 58 SD rats ♂ aged 5–6 weeks were purchased from Beijing Huafukang Biotechnology Co., Ltd. 9 animals were kept with a food control diet as normal control, and the other 49 animals were fed 40% fat, 1.25% cholesterol and 0.5% sodium cholate (HFD, D12109C, SYSE BIO, Changzhou, China) as a model group. […] Animals in the normal and model groups were given solvent by oral gavage. All drugs, including solvent, were administered consecutively for 4 weeks and once a day. After sacrifice, blood was collected and serum was isolated for the AST, ALT, TG, TC, LDL-c, and HDL-c test, and livers and hearts were weighed to calculate the liver weight ratio and the heart weight ratio, respectively. The right lobe of the liver of each rat was harvested for the TG and TC test (A110-1-1 and A111-1-1, Nanjing Jiancheng Institute of Bioengineering, Nanjing, China) according to the manufacturer's instructions. The left lobe of the liver was collected for hematoxylin-eosin staining (H and E staining) to quantify liver steatosis, inflammation, and ballooning.\nThe liver samples were fixed in 10% formalin and embedded in paraffin using standard methods. The 4 μm paraffin sections were then assessed for liver histology by H and E staining and liver fibrosis by sirius red staining. The stained sections were panoramic scanned with a NanoZoomer Digital Pathology scanner (S210, Hamamatsu, Japan), and then observed with different visual fields at different magnifications, and scored for different liver lobes in the sections. The total NAS score represents the sum of the scores for steatosis (0–3), lobular inflammation (0–3), and ballooning (0–2), and ranges from 0–8 [30]. VIS7.0 software was used to analyze the area of liver fibrosis in the panoramic scanning SR staining sections, and the percentage of liver fibrosis area in the whole section area was calculated."}, "[2]": {"details": "heart, read-out: Heart concentration"}, "[3]": {"details": "liver, read-out: Liver concentration"}, "[4]": {"details": "serum, read-out: Serum concentration"}, "[5]": {"details": "3 mg/kg (L) oral once a day 4 weeks"}, "[6]": {"details": "10 mg/kg (CS27109-M, MGL-3196) oral once a day 4 weeks"}, "[7]": {"details": "30 mg/kg (H) oral once a day 4 weeks"}, "[8]": {"details": "5 mg/kg (L) oral once a day 4 weeks"}, "[9]": {"details": "15 mg/kg (CS27109-M, MGL-3196) oral once a day 4 weeks"}, "[10]": {"details": "45 mg/kg (H) oral once a day 4 weeks"}}, "note": "Where two headings read alike, the source gives them in different places.", "data": [{"smiles": "N#Cc1nn(-c2cc(Br)c(Oc3n[nH]c(=O)c4ccccc34)c(Br)c2)c(=O)[nH]c1=O", "note": "[CS27109]", "values": [{"measurement": "average of concentration liver/heart", "setting": "[1]; 10 mg/kg oral, average of 2H and 8H", "result": 26.69}, {"measurement": "concentration at 2 h", "setting": "[1]; [2]", "result": 95.7, "unit": "ng/g"}, {"measurement": "concentration at 8 h", "setting": "[1]; [2]", "result": 309, "unit": "ng/g"}, {"measurement": "concentration at 2 h", "setting": "[1]; [3]", "result": 1670, "unit": "ng/g"}, {"measurement": "concentration at 8 h", "setting": "[1]; [3]", "result": 11100, "unit": "ng/g"}, {"measurement": "concentration at 2 h", "setting": "[1]; [4]", "result": 670, "unit": "ng/mL"}, {"measurement": "concentration at 8 h", "setting": "[1]; [4]", "result": 3620, "unit": "ng/mL"}, {"measurement": "HDL-c", "setting": "HFD-CHOL hamster model; [5]", "result": "2.6 ± 0.62", "unit": "mmol/L"}, {"measurement": "LDL-c", "setting": "HFD-CHOL hamster model; [5]", "result": "13 ± 4.3", "unit": "mmol/L"}, {"measurement": "TG", "setting": "HFD-CHOL hamster model; [5]", "result": "32 ± 31", "unit": "mmol/L"}, {"measurement": "TC", "setting": "HFD-CHOL hamster model; [5]", "result": "29 ± 8.6", "unit": "mmol/L"}, {"measurement": "ALT", "setting": "HFD-CHOL hamster model; [5]", "result": "226 ± 104", "unit": "U/L"}, {"measurement": "AST", "setting": "HFD-CHOL hamster model; [5]", "result": "564 ± 317", "unit": "U/L"}, {"measurement": "HDL-c", "setting": "HFD-CHOL hamster model; [6]", "result": "3.0 ± 0.52", "unit": "mmol/L"}, {"measurement": "LDL-c", "setting": "HFD-CHOL hamster model; [6]", "result": "12 ± 3.8", "unit": "mmol/L"}, {"measurement": "TG", "setting": "HFD-CHOL hamster model; [6]", "result": "17 ± 26", "unit": "mmol/L"}, {"measurement": "TC", "setting": "HFD-CHOL hamster model; [6]", "result": "25 ± 7.4", "unit": "mmol/L"}, {"measurement": "ALT", "setting": "HFD-CHOL hamster model; [6]", "result": "141 ± 133", "unit": "U/L"}, {"measurement": "AST", "setting": "HFD-CHOL hamster model; [6]", "result": "582 ± 383", "unit": "U/L"}, {"measurement": "HDL-c", "setting": "HFD-CHOL hamster model; [7]", "result": "2.6 ± 0.53", "unit": "mmol/L"}, {"measurement": "LDL-c", "setting": "HFD-CHOL hamster model; [7]", "result": "8.7 ± 4.1", "unit": "mmol/L"}, {"measurement": "TG", "setting": "HFD-CHOL hamster model; [7]", "result": "11 ± 19", "unit": "mmol/L"}, {"measurement": "TC", "setting": "HFD-CHOL hamster model; [7]", "result": "19 ± 7.9", "unit": "mmol/L"}, {"measurement": "AST", "setting": "HFD-CHOL hamster model; [7]", "result": "416 ± 158", "unit": "U/L"}, {"measurement": "Liver TC", "setting": "HFD SD rat model; [8]", "result": "11 ± 1.1", "unit": "µmol/g"}, {"measurement": "Liver TG", "setting": "HFD SD rat model; [8]", "result": "71 ± 28", "unit": "µmol/g"}, {"measurement": "Liver TC", "setting": "HFD SD rat model; [9]", "result": "10 ± 0.74", "unit": "µmol/g"}, {"measurement": "Liver TG", "setting": "HFD SD rat model; [9]", "result": "54 ± 24", "unit": "µmol/g"}, {"measurement": "Liver TC", "setting": "HFD SD rat model; [10]", "result": "10 ± 2.2", "unit": "µmol/g"}, {"measurement": "Liver TG", "setting": "HFD SD rat model; [10]", "result": "69 ± 21", "unit": "µmol/g"}, {"measurement": "TG", "setting": "HFD SD rat model; [8]", "result": "0.19 ± 0.08", "unit": "mmol/L"}, {"measurement": "HDL-c", "setting": "HFD SD rat model; [8]", "result": "0.78 ± 0.18", "unit": "mmol/L"}, {"measurement": "LDL-c", "setting": "HFD SD rat model; [8]", "result": "1.6 ± 0.74", "unit": "mmol/L"}, {"measurement": "TC", "setting": "HFD SD rat model; [8]", "result": "4.4 ± 1.8", "unit": "mmol/L"}, {"measurement": "ALT", "setting": "HFD SD rat model; [8]", "result": "85 ± 34", "unit": "U/L"}, {"measurement": "AST", "setting": "HFD SD rat model; [8]", "result": "213 ± 78", "unit": "U/L"}, {"measurement": "TG", "setting": "HFD SD rat model; [9]", "result": "0.22 ± 0.06", "unit": "mmol/L"}, {"measurement": "HDL-c", "setting": "HFD SD rat model; [9]", "result": "0.98 ± 0.32", "unit": "mmol/L"}, {"measurement": "LDL-c", "setting": "HFD SD rat model; [9]", "result": "0.84 ± 0.44", "unit": "mmol/L"}, {"measurement": "TC", "setting": "HFD SD rat model; [9]", "result": "2.9 ± 0.98", "unit": "mmol/L"}, {"measurement": "ALT", "setting": "HFD SD rat model; [9]", "result": "68 ± 24", "unit": "U/L"}, {"measurement": "AST", "setting": "HFD SD rat model; [9]", "result": "218 ± 82", "unit": "U/L"}, {"measurement": "TG", "setting": "HFD SD rat model; [10]", "result": "0.20 ± 0.08", "unit": "mmol/L"}]}]}
